Tests used:
Assay type in all cases: in vivo
Settings in all cases: evaluated after 13 days
Setaria faberi (SETFA) [1] = experiment: Pre-emergence Test, Setaria faberi (SETFA)
[2] = system: Echinochloa crus-galli (ECHCG); experiment: Pre-emergence Test, Echinochloa crus-galli (ECHCG)
Zea mays (ZEAMX) [3] = experiment: Pre-emergence Test, Zea mays (ZEAMX)
[4] = system: Ipomoea hederacea (IPOHE); experiment: Pre-emergence Test, Ipomoea hederacea (IPOHE)
[5] = system: Amaranthus palmeri (AMAPA); experiment: Pre-emergence Test, Amaranthus palmeri (AMAPA)
[6] = system: Amaranthus retoflexus (AMARE); experiment: Pre-emergence Test, Amaranthus retoflexus (AMARE)
Setaria faberi (SETFA) [7] = experiment: Post-emergence Test, Setaria faberi (SETFA); parameters: key to percentage damage caused to the plant, SETFA (five-point scale): 5=81-100%, 4=61-80%, 3=41-60%, 2=21-40%, 1=0-20% damage
Outline: (§1)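 Scores are percentage plant damage on a 1–5 scale (1=0-20%, 2=21-40%, 3=41-60%, 4=61-80%, 5=81-100%), read 13 days after treatment. Pots received a spray at 1000 g/ha unless otherwise stated, formulated in acetone/water (50:50) containing 0.5% Tween 20.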

[8] = system: Echinochloa crus-galli (ECHCG); experiment: Post-emergence Test, Echinochloa crus-galli (ECHCG); parameters: key to percentage damage caused to the plant, ECHCG (five-point scale): 5=81-100%, 4=61-80%, 3=41-60%, 2=21-40%, 1=0-20% damage
Outline: as §1

Zea mays (ZEAMX) [9] = experiment: Post-emergence Test, Zea mays (ZEAMX); parameters: key to percentage damage caused to the plant, ZEAMX (five-point scale): 5=81-100%, 4=61-80%, 3=41-60%, 2=21-40%, 1=0-20% damage
Outline: as §1

[10] = system: Ipomoea hederacea (IPOHE); experiment: Post-emergence Test, Ipomoea hederacea (IPOHE); parameters: key to percentage damage caused to the plant, IPOHE (five-point scale): 5=81-100%, 4=61-80%, 3=41-60%, 2=21-40%, 1=0-20% damage
Outline: as §1

[11] = system: Amaranthus palmeri (AMAPA); experiment: Post-emergence Test, Amaranthus palmeri (AMAPA); parameters: key: 5=81-100%, 4=61-80%, 3=41-60%, 2=21-40%, 1=0-20% damage
Outline: as §1

[12] = system: Amaranthus retoflexus (AMARE); experiment: Post-emergence Test, Amaranthus retoflexus (AMARE); parameters: key to percentage damage caused to the plant, AMARE (five-point scale): 5=81-100%, 4=61-80%, 3=41-60%, 2=21-40%, 1=0-20% damage
Outline: as §1

Compound	Pre-emergence Test SETFA, percentage damage caused to the plant (five-point scale) (Setaria faberi (SETFA) [1]; 250 g/Ha (*))	Pre-emergence Test SETFA, percentage damage caused to the plant (five-point scale) (Setaria faberi (SETFA) [1]; 1000 g/ha)	Pre-emergence Test ECHCG, percentage damage caused to the plant (five-point scale) ([2]; 250 g/Ha (*))	Pre-emergence Test ECHCG, percentage damage caused to the plant (five-point scale) ([2]; 1000 g/ha)	Pre-emergence Test ZEAMX, percentage damage caused to the plant (five-point scale) (Zea mays (ZEAMX) [3]; 250 g/Ha (*))	Pre-emergence Test ZEAMX, percentage damage caused to the plant (five-point scale) (Zea mays (ZEAMX) [3]; 1000 g/ha)	Pre-emergence Test IPOHE, percentage damage caused to the plant (five-point scale) ([4]; 1000 g/ha)	Pre-emergence Test AMAPA, percentage damage caused to the plant (five-point scale) ([5]; 1000 g/ha)	Pre-emergence Test AMARE, percentage damage caused to the plant (five-point scale) ([6]; 1000 g/ha)	percentage damage caused to the plant, SETFA (five-point scale) (Setaria faberi (SETFA) [7]; 250 g/Ha)	percentage damage caused to the plant, SETFA (five-point scale) (Setaria faberi (SETFA) [7]; 1000 g/ha)	percentage damage caused to the plant, ECHCG (five-point scale) ([8]; 250 g/Ha)	percentage damage caused to the plant, ECHCG (five-point scale) ([8]; 1000 g/ha)	percentage damage caused to the plant, ZEAMX (five-point scale) (Zea mays (ZEAMX) [9]; 250 g/Ha)	percentage damage caused to the plant, ZEAMX (five-point scale) (Zea mays (ZEAMX) [9]; 1000 g/ha)	percentage damage caused to the plant, IPOHE (five-point scale) ([10]; 250 g/Ha)	percentage damage caused to the plant, IPOHE (five-point scale) ([10]; 1000 g/ha)	percentage damage caused to the plant, AMAPA (five-point scale) ([11]; 250 g/Ha)	percentage damage caused to the plant, AMARE (five-point scale) ([12]; 250 g/Ha)	percentage damage caused to the plant, AMARE (five-point scale) ([12]; 1000 g/ha)	also measured
CCn1c(Cn2ccc(Cl)n2)cc(=O)c(C(=O)O)c1-c1ccc(C#N)c(Cl)c1 [Compound 119, 2-(3-chloro-4-cyano-phenyl)-6-[(3-chloropyrazol-1-yl)methyl]-1-ethyl-4-oxo-pyridine-3-carboxylic acid]	3 (3=41-60%)	4 (4=61-80%)	1 (1=0-20%)	3 (3=41-60%)	0	0	0	1 (1=0-20%)	0	1 (1=0-20%)	4 (4=61-80%)	1 (1=0-20%)	4 (4=61-80%)	0	0	1 (1=0-20%)	2 (2=21-40%)	0	1 (1=0-20%)	0	Pre-emergence Test IPOHE, percentage damage caused to the plant (five-point scale) ([4]; 250 g/Ha (*)): 0; Pre-emergence Test AMAPA, percentage damage caused to the plant (five-point scale) ([5]; 250 g/Ha (*)): 1 (1=0-20%); Pre-emergence Test AMARE, percentage damage caused to the plant (five-point scale) ([6]; 250 g/Ha (*)): 0
CCn1c(Cn2cc(C)cn2)cc(=O)c(C(=O)O)c1-c1ccc(Cl)c(Cl)c1 [Compound 91, 2-(3,4-dichlorophenyl)-1-ethyl-6-[(4-methylpyrazol-1-yl)methyl]-4-oxo-pyridine-3-carboxylic acid]		0		0		0	0	1 (1=0-20%)	1 (1=0-20%)	0	1 (1=0-20%)	3 (3=41-60%)	1 (1=0-20%)	1 (1=0-20%)	1 (1=0-20%)	0	3 (3=41-60%)	1 (1=0-20%)	1 (1=0-20%)	2 (2=21-40%)	percentage damage caused to the plant, AMAPA (five-point scale) ([11]; 1000 g/ha): 4 (4=61-80%)
CCn1c(Cn2nc(C)cc2OC(F)F)cc(=O)c(C(=O)O)c1-c1ccc(Cl)c(Cl)c1 [Compound 150, 2-(3,4-dichlorophenyl)-6-[[5-(difluoromethoxy)-3-methyl-pyrazol-1-yl]methyl]-1-ethyl-4-oxo-pyridine-3-carboxylic acid]	5 (5=81-100%)	5 (5=81-100%)	4 (4=61-80%)	5 (5=81-100%)	1 (1=0-20%)	3 (3=41-60%)	4 (4=61-80%)	2 (2=21-40%)	1 (1=0-20%)	4 (4=61-80%)	4 (4=61-80%)	2 (2=21-40%)	4 (4=61-80%)	1 (1=0-20%)	3 (3=41-60%)	4 (4=61-80%)	2 (2=21-40%)	0	0	2 (2=21-40%)	Pre-emergence Test IPOHE, percentage damage caused to the plant (five-point scale) ([4]; 250 g/Ha (*)): 1 (1=0-20%); Pre-emergence Test AMAPA, percentage damage caused to the plant (five-point scale) ([5]; 250 g/Ha (*)): 1 (1=0-20%); Pre-emergence Test AMARE, percentage damage caused to the plant (five-point scale) ([6]; 250 g/Ha (*)): 0; percentage damage caused to the plant, AMAPA (five-point scale) ([11]; 1000 g/ha): 1 (1=0-20%)
CCn1c(Cn2ccc(I)n2)cc(=O)c(C(=O)O)c1-c1ccc(Cl)c(Cl)c1 [Compound 78, 2-(3,4-dichlorophenyl)-1-ethyl-6-[(3-iodopyrazol-1-yl)methyl]-4-oxo-pyridine-3-carboxylic acid]	5 (5=81-100%)	5 (5=81-100%)	5 (5=81-100%)	5 (5=81-100%)	4 (4=61-80%)	3 (3=41-60%)	4 (4=61-80%)	2 (2=21-40%)	2 (2=21-40%)	4 (4=61-80%)	4 (4=61-80%)	3 (3=41-60%)	4 (4=61-80%)	1 (1=0-20%)	3 (3=41-60%)	4 (4=61-80%)	4 (4=61-80%)	2 (2=21-40%)	1 (1=0-20%)	3 (3=41-60%)	Pre-emergence Test IPOHE, percentage damage caused to the plant (five-point scale) ([4]; 250 g/Ha (*)): 4 (4=61-80%); Pre-emergence Test AMAPA, percentage damage caused to the plant (five-point scale) ([5]; 250 g/Ha (*)): 3 (3=41-60%); Pre-emergence Test AMARE, percentage damage caused to the plant (five-point scale) ([6]; 250 g/Ha (*)): 2 (2=21-40%); percentage damage caused to the plant, AMAPA (five-point scale) ([11]; 1000 g/ha): 2 (2=21-40%)

Source: patent US20250098679A1, “HERBICIDAL PYRIDONE DERIVATIVES” (SYNGENTA CROP PROTECTION AG, priority 2021, published 2025)
